The subject of assay [1] is ER stressed SCG neurons. The assay is described as follows: Survival of tunicamycin-treated (ER stressed) SCG sympathetic neurons after microinjection. Format: cell-based, mice. The conditions noted are these: for survived neurons as % compared to neurons grown in the presence of NGF: microinjected into cytoplasm, tunicamycin 2 μM, CDNF (400); for Fold change of survived neurons compared to neurons injected with PBS: data of Table 1 divided by values of PBS. The method in brief:
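Newborn mouse SCG neurons grown 5-6 days with 30 ng/ml NGF, then microinjected with CDNF (FL or C-terminal) plasmids (10 ng/ul, EGFP reporter) or proteins (200 ng/ul, Dextran Texas Red). Tunicamycin (2 μM) added next day. Fluorescent survivors counted blindly after 3 days as % of initial; compared with vector or PBS (ANOVA/Dunnett).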

Assay [2] relates to dopamine neurons. The assay is described as follows: Survival of TH-positive dopamine neurons in dissociated midbrain floor cultures. Format: cell-based, mouse. The settings on record: for survived neurons as % compared to neurons grown in the presence of GDNF: 5 days; for Fold change of survived neurons compared to neurons grown without growth factors: data of Table 3 divided by values of no factor. The method in brief: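 Dissociated E13.5 NMRI mouse midbrain floor neurons grown five days in DMEM/F12 with N2, with polypeptides at a range of concentrations, GDNF (100 ng/ml), or nothing. TH-immunopositive neurons were counted by imaging. Values are a percentage of GDNF-maintained TH-positive neurons, as mean ± SEM from at least three independent cultures.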

Here are results for two sequences from patent publication US12479895B2, “C-terminal CDNF and MANF fragments, pharmaceutical compositions comprising same and uses thereof” (MyNeuroCure Oy, priority 2018, dated 2025).

In the case of “TLDLASVDLRKMRVAELKQILHSWGEESRACAEKTDYVNLIQELAPKYA (C-CDNF peptide with single amino acid substitution) [pep9]”, the “survived neurons as % compared to neurons grown in the presence of NGF” value in assay [1] (Table 1B (FIG. 16), exp1, counted after 3 days) is reported as 41.23 % NGF; in assay [1] (Table 1B (FIG. 16), exp2, counted after 3 days), 44.00 % NGF; in assay [1] (Table 1B (FIG. 16), exp3, counted after 3 days), 44.44 % NGF. The “survived neurons as % compared to neurons grown in the presence of GDNF” value (“survived neurons as % … of GDNF” for short) in assay [2] (Table 3B (FIG. 17), AVG, 1 ng/ml) turned out to be 62.74 % GDNF; in assay [2] (Table 3B (FIG. 17), AVG, 10 ng/ml), 69.29 % GDNF; in assay [2] (Table 3B (FIG. 17), AVG, 100 ng/ml), 71.62 % GDNF; in assay [2] (Table 3B (FIG. 17), AVG, 1000 ng/ml), 67.12 % GDNF.

Turning to “TLDLASVDLRKMRVAELKQILHSWGEECRACAEKTDYVNLIQELAPKYAATHPKTEL (listed as Homo sapiens) [pep2]”, the “survived neurons as % compared to neurons grown in the presence of NGF” value in assay [1] (Table 1A (FIG. 14), AVG of exp1-2) was determined as 77.52 % NGF; in assay [1] (Table 1A (FIG. 14), exp1, counted after 3 days), 79.71 % NGF; in assay [1] (Table 1A (FIG. 14), exp2, counted after 3 days) it was 75.32 % NGF. Moreover, the “Fold change of survived neurons compared to neurons injected with PBS” value was 2.11 Fold to PBS in assay [1] (Table 2, AVG); 2.32 Fold to PBS in assay [1] (Table 2, exp1); 1.90 Fold to PBS in assay [1] (Table 2, exp2). For the same sequence, the “survived neurons as % … of GDNF” value in assay [2] (Table 3A (FIG. 15), AVG, 1 ng/ml) came to 67.69 % GDNF; in assay [2] (Table 3A (FIG. 15), AVG, 10 ng/ml) it was 69.82 % GDNF; in assay [2] (Table 3A (FIG. 15), AVG, 100 ng/ml) it was 68.98 % GDNF; in assay [2] (Table 3A (FIG. 15), AVG, 1000 ng/ml), 66.30 % GDNF; in assay [2] (Table 3A (FIG. 15), exp1, 1 ng/ml), 81.18 % GDNF; in assay [2] (Table 3A (FIG. 15), exp1, 10 ng/ml), 74.74 % GDNF. The “survived neurons as % … of GDNF” value in assay [2] (Table 3A (FIG. 15), exp1, 100 ng/ml) is given as 81.00 % GDNF; in assay [2] (Table 3A (FIG. 15), exp1, 1000 ng/ml) it was 83.01 % GDNF; in assay [2] (Table 3A (FIG. 15), exp2, 1 ng/ml), 52.61 % GDNF; in assay [2] (Table 3A (FIG. 15), exp2, 10 ng/ml) it was 58.93 % GDNF; in assay [2] (Table 3A (FIG. 15), exp2, 100 ng/ml) it was 47.98 % GDNF; in assay [2] (Table 3A (FIG. 15), exp2, 1000 ng/ml), 52.95 % GDNF. Moreover, the “survived neurons as % … of GDNF” value is listed as 69.28 % GDNF in assay [2] (Table 3A (FIG. 15), exp3, 1 ng/ml); 75.80 % GDNF in assay [2] (Table 3A (FIG. 15), exp3, 10 ng/ml); 77.95 % GDNF in assay [2] (Table 3A (FIG. 15), exp3, 100 ng/ml); 62.94 % GDNF in assay [2] (Table 3A (FIG. 15), exp3, 1000 ng/ml). For the same sequence, the “Fold change of survived neurons compared to neurons grown without growth factors” value was determined as 1.11 fold in assay [2] (Table 4, AVG, 1 ng/ml); 1.14 fold in assay [2] (Table 4, AVG, 10 ng/ml); 1.13 fold in assay [2] (Table 4, AVG, 100 ng/ml); 1.09 fold in assay [2] (Table 4, AVG, 1000 ng/ml); 1.42 fold in assay [2] (Table 4, exp1, 1 ng/ml); 1.31 fold in assay [2] (Table 4, exp1, 10 ng/ml). Besides, the “Fold change of survived neurons compared to neurons grown without growth factors” value was determined as 1.42 fold in assay [2] (Table 4, exp1, 100 ng/ml); 1.45 fold in assay [2] (Table 4, exp1, 1000 ng/ml); 0.83 fold in assay [2] (Table 4, exp2, 1 ng/ml); 0.93 fold in assay [2] (Table 4, exp2, 10 ng/ml); 0.76 fold in assay [2] (Table 4, exp2, 100 ng/ml); 0.84 fold in assay [2] (Table 4, exp2, 1000 ng/ml). Besides, the “Fold change of survived neurons compared to neurons grown without growth factors” value in assay [2] (Table 4, exp3, 1 ng/ml) worked out at 1.07 fold; in assay [2] (Table 4, exp3, 10 ng/ml) it was 1.17 fold; in assay [2] (Table 4, exp3, 100 ng/ml) it was 1.20 fold; in assay [2] (Table 4, exp3, 1000 ng/ml), 0.97 fold.
